“And” between values parts separate entries of the source, which are not always exact repeats. Equal entries are not always repeated.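 Cultured in 96-well plates, cells were exposed to test compound for 48 hours across five concentrations. GI50 = concentration required for 50% inhibition of growth. TGI: concentration producing complete growth inhibition.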
How the values were obtained:
Assay in all cases: inhibition of tumour cell growth, NCI panel, 48 h
[1] = tested on: MALME-3M melanoma
[2] = tested on: LOX IMVI melanoma
[3] = tested on: UACC-62 melanoma
[4] = tested on: SNB-75 CNS
[5] = tested on: SR leukemia
[6] = tested on: SN12C renal
[7] = tested on: OVCAR-5 ovarian
[8] = tested on: A549 NSCLC
[9] = tested on: OVCAR-3 ovarian
[10] = tested on: K-562 leukemia

Structure (SMILES)	TGI [1]	TGI [2]	TGI [3]	TGI [4]	TGI [5]	TGI [6]	TGI [7]	TGI [8]	TGI [9]	TGI [10]	GI50 [1] [µM]	GI50 [2] [µM]	GI50 [3] [µM]	GI50 [4] [µM]	GI50 [5] [µM]	GI50 [6] [µM]	GI50 [7] [µM]	GI50 [8] [µM]	GI50 [9] [µM]	GI50 [10] [µM]
CN1CC(C(=O)C2C(=O)c3ccccc3C2=O)C(=O)C(=O)C(C(=O)C2C(=O)c3ccccc3C2=O)C1 (configuration not stated)	> 100 µM	> 100 µM	> 100 µM	> 100 µM	> 100 µM	> 100 µM	> 100 µM	> 100 µM	> 10 µM	> 100 µM	–	–	–	–	–	–	–	–	–	–
COc1cccc(/C=C/c2cnc3ccccc3n2)c1OC	> 100 µM	> 100 µM	91.2 µM	79.6 µM	> 100 µM	> 100 µM	> 100 µM	> 100 µM	> 100 µM	> 100 µM	–	–	–	–	–	–	–	–	–	–
CCOC(=O)/C=C/C(C(=O)/C=C/c1ccc(O)c(OC)c1)=C(O)\C=C\c1ccc(O)c(OC)c1	> 100 µM	3.12 µM	3.76 µM	28.7 µM	> 100 µM	8.16 µM	7.56 µM	24.5 µM	12.3 µM	> 100 µM	9.93	0.903	1.85	11.2	11	1.88	3.17	4.84	3.39	5.66
Cc1cc(Cc2cc(C)cc(C(C)(C)C)c2O)c(O)c(C(C)(C)C)c1	20 µM	20.2 µM	22.2 µM	24.3 µM	45.9 µM	24.1 µM	27.5 µM	13.2 µM	13.1 µM	19.8 µM	5.3	7.55	10.4	11.9	4.46	11.9	14.4	3.86	3.97	3.95
c1ccc(-n2nnnc2-c2cccc3ccccc23)cc1	> 100 µM	24.8 µM	> 100 µM	> 27.7 µM	74.4 µM	> 100 µM	> 100 µM	> 100 µM	0.627 µM	> 100 µM	0.635	0.498	0.666	1.55	0.438	1.33	3.27	1.04	0.257	0.377
N#CC1=C(N)NC(=O)NC12Nc1ccccc1S2 (configuration not stated)	42.5 µM	> 59.2 µM	36.4 µM	> 100 µM	> 100 µM	50.8 µM	> 72.3 µM	> 40.4 µM	> 59.9 µM	> 93 µM	4.63	22.9	14.7	51	10.4	17.6	27	4.27	26.8	31.8
COc1cc(/C=C2\CCC(CN(C)C)C2=O)ccc1OC(=O)c1ccccc1 (configuration not stated)	29.5 µM	13 µM	30.9 µM	35 µM	6.97 µM	25.1 µM	33.8 µM	51.5 µM	21.3 µM	9.04 µM	–	–	–	–	–	–	–	–	–	–
CC(=O)OCC1OC(OC2CC3C(C)(C)C(O)CC[C@]3(C)C3CCC45CC4(CC[C@H]5C(C)CC(O)C4OC4(C)C)[C@]23C)C(O)C(O)C1O (some centres not stated)	16.5 µM and 20.8 µM	12.1 µM and 3.17 µM	14.2 µM and 17.3 µM	15 µM and 26.6 µM	3.53 µM and 4.13 µM	15.2 µM and 21.6 µM	16.1 µM and 29.2 µM	18.5 µM and 27.1 µM	12.5 µM and 17.6 µM	4.12 µM and 16.2 µM	4.52	1.52	4.99	13.7	1.93	–	15.8	12.3	4.26	–
NC1=NC(c2ccc(Cl)cc2)C2=C(N1)/C(=C/c1ccc(Cl)cc1)CCC2 (configuration not stated)	50.8 µM	3.64 µM	34.8 µM	59.3 µM	9.84 µM	50.4 µM	63.3 µM	35 µM	15.4 µM	> 87.8 µM	19.4	1.85	13.3	16.4	3.69	17.3	25.2	7.79	5.76	6.92
Cc1ccc2c(O)c(O)cc(NC(C)CCCN)c2n1 (configuration not stated)	41.6 µM	25.4 µM	> 66.8 µM	> 62.7 µM	79.3 µM	24.8 µM	25.2 µM	> 100 µM	5.26 µM	60.4 µM	18.7	4.55	27.3	24.6	30.5	3.89	7.36	24.3	2.12	12.3
C=C1C(=O)O[C@H]2[C@H]1CC/C(COC(=O)NCCc1c[nH]c3ccc(OC)cc13)=C\CC[C@@]1(C)O[C@@H]21	3.9 µM	2.78 µM	3.77 µM	21.7 µM	9.33 µM	3.8 µM	4 µM	18.4 µM	3.92 µM	3.29 µM	1.91	1.32	1.72	10	1.02	1.81	1.82	4.58	1.44	0.453
COc1ccc(/C=C/C(=O)Oc2cc(O)cc(O)c2)cc1	> 100 µM	41.1 µM	> 100 µM	> 100 µM	> 100 µM	> 100 µM	> 100 µM	> 100 µM	32.1 µM	> 100 µM	–	–	–	–	–	–	–	–	–	–
CCCCCCCCCCCCSC(=N)N	29.5 µM	13.3 µM	31 µM	35 µM	4.4 µM	21.4 µM	25.3 µM	29.5 µM	26.2 µM	4.64 µM	15	3.58	15.7	16.2	1.79	8.21	12.4	12.9	10.3	2.01
C=CCC1(O)c2cccc(NCCO)c2C(=O)c2c(NCCO)cccc21	> 100 µM	> 100 µM	> 100 µM	> 100 µM	> 100 µM	> 100 µM	> 100 µM	> 100 µM	> 100 µM	> 100 µM	> 100	> 100	> 100	75.3	> 100	> 100	> 100	> 100	> 100	> 100
COc1cc2c(cc1O)CC13CCC(=O)N1CCc1cc(OC)c(O)c-2c13 (configuration not stated)	> 68.1 µM	> 68.1 µM	> 68.1 µM	> 68.1 µM	> 68.1 µM	> 68.1 µM	> 68.1 µM	> 68.1 µM	> 68.1 µM	> 68.1 µM	–	–	–	–	–	–	–	–	–	–
COc1ccc2c(c1)C(=O)/C(=C/c1ncc([N+](=O)[O-])n1C)O2	1.07 µM	0.481 µM	3.12 µM	2.63 µM	1.35 µM	1.3 µM	5.67 µM	6.28 µM	5.11 µM	–	0.288	0.179	1.29	1.12	0.0239	0.292	1.75	2.18	1.3	0.245
O=c1[nH]cnc2[nH]ncc12	> 5000 µM	> 5000 µM	> 2560 µM	> 4110 µM	> 2670 µM	> 5000 µM	> 1550 µM	> 5000 µM	> 1820 µM	> 5000 µM	1330	142	166	1180	480	485	486	1940	269	179
CCN(CCCl)CCCNc1c2ccccc2nc2ccc(OC)cc12	–	0.669 µM	–	–	1.04 µM	–	–	1300 µM	–	–	754	–	255	532	–	274	286	–	119	116
O=C(c1ccco1)c1c(C(F)(F)F)n([O-])c2ccccc2[n+]1=O	8.02 µM	2.1 µM	2.61 µM	25.1 µM	0.523 µM	3.1 µM	13.4 µM	27.7 µM	3.88 µM	3.43 µM	1.68	0.548	0.536	8.36	0.0737	0.618	3.68	3.18	0.735	0.207
CC(=O)OC1CC2(O)C3CCC4CC(O)CCC4(C)C3CCC2(C)C1C1=CC(=O)OC1 (configuration not stated)	0.111 µM	0.209 µM	0.475 µM	0.618 µM	0.131 µM	0.16 µM	0.451 µM	0.0323 µM	0.172 µM	1.87 µM	–	–	–	–	–	–	–	–	–	–
COc1ccc(C(=O)c2cc3c(OC)c(OC)c(OC)cc3[nH]2)cc1	> 100 µM	> 100 µM	> 100 µM	28.5 µM	2.57 µM	> 100 µM	> 100 µM	> 100 µM	> 100 µM	> 100 µM	5.8	4.91	3.39	6.84	0.295	5.21	66.9	5.77	9.07	1.1
